Assay results published in patent publication US4644055A, “Method for preparing specific inhibitors of virus-specified proteases” (priority 1984, dated 1987).
Like-named read-outs stand apart in the source and are kept apart here. Starred links: 1 amine or outer side, 2 acyl side, 3 side chain; linkers in the order of their positions; H or OH if unused. *: point of attachment. code Z = not defined here; MeOSuc = COC(=O)CCC(=O)*; CH2 = C([*:1])[*:2]; CH2Cl = ClC*

Legend:
echovirus-12 = conditions: Korant 1972; cited from earlier work
poliovirus = conditions: cited from earlier work
chymotrypsin = chymotrypsin (Bos taurus, UniProt P00766); conditions: inhibitor concentration 600 μg/mL; Ito et al. 1972; cited from earlier work
[1] = system: human poliomyelitisvirus type 2; format: cell-based, poliovirus type 2; set-up: key to Comparative Experiments Involving Other Peptide Halomethyl Ketones: Activity: -: no activity; +/-: low activity; +: active at 100 μg/mL; ++: active at 50 μg/mL; +++: active at 10 μg/mL; ++++: active at <5 μg/mL
human rhinovirus type 1A [2] = format: cell-based
poliovirus type 2 = format: cell-based
human rhinovirus type 1A [3] = assay: Plaque inhibition assay, rhinovirus; format: cell-based

Cc1ccc(S(=O)(=O)NC(CCCCN)C(=O)CCl)cc1 (stereo not drawn) [TLCK, tolylsulfonyllysyl chloromethyl ketone]
inhibition of echovirus-12 protein processing (echovirus-12): inhibition
inhibition of poliovirus protein processing / protease cleavage of poliovirus-specific polypeptides (poliovirus): inhibition

Cc1ccc(S(=O)(=O)N[C@@H](Cc2ccccc2)C(=O)CCl)cc1 [TPCK, tolylsulfonylphenylalanyl chloromethyl ketone]
inhibition of echovirus-12 protein processing (echovirus-12): inhibition
inhibition of poliovirus protein processing / protease cleavage of poliovirus-specific polypeptides (poliovirus): inhibition

Ac-Leu-Leu-PheCH3
inhibition of chymotrypsin (chymotrypsin): no inhibition was observed

MeOSuc-Phe-Gly-Leu-LeuCH3 (MeOSuc-FGLL-CH2; SMILES COC(=O)CCC(=O)N[C@@H](Cc1ccccc1)C(=O)NCC(=O)N[C@@H](CC(C)C)C(=O)N[C@@H](CC(C)C)C(C)=O)
activity in the viral cleavage assay ([1]; 50 μg/mL): active

Z-- Phe--Gly--Pro--LeuCH2 Cl ({code Z}-FGPL-CH2Cl; reading uncertain; also: printed as Z-- Phe--Gly--Pro--LeuCH2 Cl)
Protease-Inhibiting Activity of Selected Peptide Halomethyl Ketones: Activity [1]: ++ (key: -: no activity; +/-: low activity; +: active at 100 μg/mL; ++: active at 50 μg/mL; +++: active at 10 μg/mL; ++++: active at <5 μg/mL)

Z--Ala--Gly--Ala--LeuCH2 Cl ({code Z}-AGAL-CH2Cl; reading uncertain; also: printed as Z--Ala--Gly--Ala--LeuCH2 Cl)
Comparative Experiments Involving Other Peptide Halomethyl Ketones: Activity [1]: +/-

Z--Gln--Gly--Ala--LeuCH2 Cl ({code Z}-QGAL-CH2Cl; reading uncertain; also: printed as Z--Gln--Gly--Ala--LeuCH2 Cl)
Comparative Experiments Involving Other Peptide Halomethyl Ketones: Activity [1]: + (key: -: no activity; +/-: low activity; +: active at 100 μg/mL; ++: active at 50 μg/mL; +++: active at 10 μg/mL; ++++: active at <5 μg/mL)

Z--Leu--Gly--Ala--LeuCH2 Cl ({code Z}-LGAL-CH2Cl; reading uncertain; also: printed as Z--Leu--Gly--Ala--LeuCH2 Cl)
Protease-Inhibiting Activity of Selected Peptide Halomethyl Ketones: Activity [1]: +++ (key: -: no activity; +/-: low activity; +: active at 100 μg/mL; ++: active at 50 μg/mL; +++: active at 10 μg/mL; ++++: active at <5 μg/mL)

Z--Phe--Gly--Gly--LeuCH2 Cl ({code Z}-FGGL-CH2Cl; reading uncertain; also: printed as Z--Phe--Gly--Gly--LeuCH2 Cl)
Protease-Inhibiting Activity of Selected Peptide Halomethyl Ketones: Activity [1]: +++ (key: -: no activity; +/-: low activity; +: active at 100 μg/mL; ++: active at 50 μg/mL; +++: active at 10 μg/mL; ++++: active at <5 μg/mL)

Z--Phe--Gly--Lys--LeuCH2 Cl ({code Z}-FGKL-CH2Cl; reading uncertain; also: printed as Z--Phe--Gly--Lys--LeuCH2 Cl)
Comparative Experiments Involving Other Peptide Halomethyl Ketones: Activity [1]: + (key: -: no activity; +/-: low activity; +: active at 100 μg/mL; ++: active at 50 μg/mL; +++: active at 10 μg/mL; ++++: active at <5 μg/mL)

Z--Phe--Gly--Phe--LeuCH2 Cl ({code Z}-FGFL-CH2Cl; reading uncertain; also: printed as Z--Phe--Gly--Phe--LeuCH2 Cl)
Protease-Inhibiting Activity of Selected Peptide Halomethyl Ketones: Activity [1]: ++ (key: -: no activity; +/-: low activity; +: active at 100 μg/mL; ++: active at 50 μg/mL; +++: active at 10 μg/mL; ++++: active at <5 μg/mL)

Z--Phe--Leu--Ala--LeuCH2 Cl ({code Z}-FLAL-CH2Cl; reading uncertain; also: printed as Z--Phe--Leu--Ala--LeuCH2 Cl)
Protease-Inhibiting Activity of Selected Peptide Halomethyl Ketones: Activity [1]: ++ (key: -: no activity; +/-: low activity; +: active at 100 μg/mL; ++: active at 50 μg/mL; +++: active at 10 μg/mL; ++++: active at <5 μg/mL)

Z--Phe--Lys--Ala--LeuCH2 Cl ({code Z}-FKAL-CH2Cl; reading uncertain; also: printed as Z--Phe--Lys--Ala--LeuCH2 Cl)
Comparative Experiments Involving Other Peptide Halomethyl Ketones: Activity [1]: + (key: -: no activity; +/-: low activity; +: active at 100 μg/mL; ++: active at 50 μg/mL; +++: active at 10 μg/mL; ++++: active at <5 μg/mL)

Z--Phe--Phe--Ala--LeuCH2 Cl ({code Z}-FFAL-CH2Cl; reading uncertain; also: printed as Z--Phe--Phe--Ala--LeuCH2 Cl)
Comparative Experiments Involving Other Peptide Halomethyl Ketones: Activity [1]: +/-

Z--Phe--Pro--Ala--LeuCH2 Cl ({code Z}-FPAL-CH2Cl; reading uncertain; also: printed as Z--Phe--Pro--Ala--LeuCH2 Cl)
Comparative Experiments Involving Other Peptide Halomethyl Ketones: Activity [1]: + (key: -: no activity; +/-: low activity; +: active at 100 μg/mL; ++: active at 50 μg/mL; +++: active at 10 μg/mL; ++++: active at <5 μg/mL)

Z-Phe-Gly-Ala-LeuCH2 Br ({code Z}-FGAL-CH2Br; reading uncertain; also: printed as Z-Phe-Gly-Ala-LeuCH2 Br) [Z--Phe--Gly--Ala--LeuCH2 Br]
Protease-Inhibiting Activity of Selected Peptide Halomethyl Ketones: Activity [1]: +++ (key: -: no activity; +/-: low activity; +: active at 100 μg/mL; ++: active at 50 μg/mL; +++: active at 10 μg/mL; ++++: active at <5 μg/mL)

Z-Phe-Gly-Ala-LeuCH2 Cl ({code Z}-FGAL-CH2Cl; reading uncertain; also: printed as Z-Phe-Gly-Ala-LeuCH2 Cl) [Z--Phe--Gly--Ala--LeuCH2 Cl]
Protease-Inhibiting Activity of Selected Peptide Halomethyl Ketones: Activity [1]: +++ (key: -: no activity; +/-: low activity; +: active at 100 μg/mL; ++: active at 50 μg/mL; +++: active at 10 μg/mL; ++++: active at <5 μg/mL)

Z-Phe-Gly-Ala-LeuCH3 ({code Z}-FGAL-CH2; reading uncertain; also: printed as Z-Phe-Gly-Ala-LeuCH3)
activity in the viral cleavage assay (human rhinovirus type 1A [2]; test concentration 100 μg/mL): demonstrated activity
plaque reduction (poliovirus type 2): > 90%
plaque reduction (human rhinovirus type 1A [3]; 50 μg/mL in agar overlay, compared to control plates): > 90%
activity in the viral cleavage assay ([1]; 50 μg/mL): active
activity in the viral cleavage assay ([1]; test concentration 100 μg/mL): demonstrated activity

Z-Phe-Gly-Ala-TyrCH2 Cl ({code Z}-FGAY-CH2Cl; reading uncertain; also: printed as Z-Phe-Gly-Ala-TyrCH2 Cl) [Z--Phe--Gly--Ala--TyrCH2 Cl]
Protease-Inhibiting Activity of Selected Peptide Halomethyl Ketones: Activity [1]: ++ (key: -: no activity; +/-: low activity; +: active at 100 μg/mL; ++: active at 50 μg/mL; +++: active at 10 μg/mL; ++++: active at <5 μg/mL)

Z-Phe-Gly-Ala-ValCH2 Cl ({code Z}-FGAV-CH2Cl; reading uncertain; also: printed as Z-Phe-Gly-Ala-ValCH2 Cl) [Z--Phe--Gly--Ala--ValCH2 Cl]
Protease-Inhibiting Activity of Selected Peptide Halomethyl Ketones: Activity [1]: ++ (key: -: no activity; +/-: low activity; +: active at 100 μg/mL; ++: active at 50 μg/mL; +++: active at 10 μg/mL; ++++: active at <5 μg/mL)

Z-Phe-Gly-Leu-LeuCH2 Cl ({code Z}-FGLL-CH2Cl; reading uncertain; also: printed as Z-Phe-Gly-Leu-LeuCH2 Cl) [Z--Phe--Gly--Leu--LeuCH2 Cl]
concentration at which cytotoxicity was first detected (human HeLa-O cells): about 15 μg/mL
Antiviral activity, as scored by 90% plaque reduction, noted at concentration (human rhinovirus type 1A [3]; HeLa cells, agar overlay): 1 µg/mL
Protease-Inhibiting Activity of Selected Peptide Halomethyl Ketones: Activity [1]: ++++ (key: -: no activity; +/-: low activity; +: active at 100 μg/mL; ++: active at 50 μg/mL; +++: active at 10 μg/mL; ++++: active at <5 μg/mL)

Z-Phe-Gly-Leu-LeuCH3 [Z--Phe--Gly--Leu--LeuCH3]
activity in the viral cleavage assay (human rhinovirus type 1A [2]): demonstrated activity
activity in the viral cleavage assay [1]: demonstrated activity

Z-Phe-Gly-Ser-LeuCH2 Cl ({code Z}-FGSL-CH2Cl; reading uncertain; also: printed as Z-Phe-Gly-Ser-LeuCH2 Cl) [Z--Phe--Gly--Ser--LeuCH2 Cl]
Protease-Inhibiting Activity of Selected Peptide Halomethyl Ketones: Activity [1]: ++ (key: -: no activity; +/-: low activity; +: active at 100 μg/mL; ++: active at 50 μg/mL; +++: active at 10 μg/mL; ++++: active at <5 μg/mL)

Z-Phe-Ser-Ala-LeuCH2 Cl ({code Z}-FSAL-CH2Cl; reading uncertain; also: printed as Z-Phe-Ser-Ala-LeuCH2 Cl) [Z--Phe--Ser--Ala--LeuCH2 Cl]
Comparative Experiments Involving Other Peptide Halomethyl Ketones: Activity [1]: + (key: -: no activity; +/-: low activity; +: active at 100 μg/mL; ++: active at 50 μg/mL; +++: active at 10 μg/mL; ++++: active at <5 μg/mL)
